Experimental findings from the AptaBench aptamer set (doi:10.1093/nar/gkaf219) are described below.

Conditions in all cases: 10 mM Tris-HCl, pH 7.4
Experiment [1] has as its system DNA aptamer or structured DNA CTTACGACTAGGTGTGGGTCGGCCATTAGTGGAGGGTAGTCGTAAG
Experiment [2] concerns DNA aptamer or structured DNA GGGACGACGGCACGAGGTTATTCGTTGGTTGCACTGCGCTGGGAGGTAGTCGTCCC
Experiment [3] has as its system DNA aptamer or structured DNA CTTACGACATGGGATGTGTAGTTAGTGGTCGGATCCGGGTCGTAAG
For experiment [4], the system named is DNA aptamer or structured DNA GGGACGACGGAGGTGTAGGGTTTAGGTAGTGGTTTGAAGTCGTCCC
Experiment [5] deals with DNA aptamer or structured DNA CTTACGACGACCTAGTGGGGGTAGTTATAGTTGGGTGAGTCGTAAG
The subject of experiment [6] is DNA aptamer or structured DNA CTTACGACGTAGCTTCGGGTGTTCTGGGTGAGCTCTGCGTCGTAAG
Experiment [7] relates to DNA aptamer or structured DNA GGGACGACGGGGCTCTTACCCTGGAGGGTAGAAGGGGAGGTGTGGTCAGTCGTCCC
Experiment [8] concerns DNA aptamer or structured DNA TTCAAATCTAGCGCAGGTAGGGGTGTAGGTGTGGGGGTAAGTCTAGATTTGAA
Experiment [9] deals with DNA aptamer or structured DNA CTTACGACAATGGGGCAGTTCTAGTTGGGGTTTATATTGTCGTAAG
Experiment [10] has as its system DNA aptamer or structured DNA CTTACGACACACGGTGTGGATGAGGTGGGCTAATAGGGGTCGTAAG
Experiment [11] concerns DNA aptamer or structured DNA CTTACGACGCGGACGTTGTGGGGCGTGGCAGTCGGTGAGTCGTAAG
The subject of experiment [12] is DNA aptamer or structured DNA CTTACGACATGGGATGTAAGTTAGTGGGTCGGATCCGGGTCGTAAG
Experiment [13] relates to DNA aptamer or structured DNA CTTACGACACATTTGGGTATTCTGGGTGAGCTGTGTCGTAAG
The subject of experiment [14] is DNA aptamer or structured DNA CTTACGACCTGCTCTGAGGGTCAACGGTGGTGTAGTCGGTCGTAAG
The subject of experiment [15] is DNA aptamer or structured DNA GGGACGACGGGACGGTAAGTGGCAGGTCGTTGGAATTTCTACTGTATCGTCGTCCC
Experiment [16] deals with DNA aptamer or structured DNA TTCAAATCTGAGCAGCCTAGTTACTGACGGGTTTATAGTACTCACATTGAGTCTAGATTTGAA
Experiment [17] deals with DNA aptamer or structured DNA CTTACGACACAGGGGGGGGCTAGGGTGCGCGGAAGCTGGTCGTAAG
For experiment [18], the system named is DNA aptamer or structured DNA CTTACGACGTTGGGCTTATTAGGGGCTGGAGTGGGTGAGTCGTAAG
Experiment [19] deals with DNA aptamer or structured DNA CTTACGACTAGGTGTGGGTCGGCTGCTTTCGCAGGGTAGTCGTAAG
Experiment [20] deals with DNA aptamer or structured DNA GGGACGACGCTAGGGGATCTTTTGGGGTTTGTATGGGCGTCGTCCC
In experiment [21] the test system is DNA aptamer or structured DNA CTTACGACAAAGGCTCGGGCTCCCATGATGGATTCGTTGTCGTAAG
The test system of experiment [22] is DNA aptamer or structured DNA CTTACGACAAGGGATGTGTAGTTAGTGGTCGGATCCGAGTCGTAAG
Experiment [23] relates to DNA aptamer or structured DNA CTTACGACACAGGGGGGGGCTAGGGTGCGCGGGAGCTGGTCGTAAG
Experiment [24] relates to DNA aptamer or structured DNA GGGACGACGGCAATTGCCGGTGCAGGATCTGAATTATCGTCGTCCC
The test system of experiment [25] is DNA aptamer or structured DNA CTTACGACTACGGTTGGTTCAGGGGGTAGGTGCTTTGGGTCGTAAG
Experiment [26] concerns DNA aptamer or structured DNA GGGACGACCTAGGGCTTGGGTTTAGGTGTGGGGTGTTGGGTCGTCCC
For experiment [27], the system named is DNA aptamer or structured DNA CTTACGACAGGGGTACCCGCGTATAACGTGGCGTTCGTGTCGTAAG
Experiment [28] has as its system DNA aptamer or structured DNA CTTACGACGAGCATCGGTTTTTTCGGTGATGTCTGGGAGTCGTAAG
Experiment [29] concerns DNA aptamer or structured DNA CTTACGACGGAGGTTGGGAAGGAGGGGGAGGCCGGAGAGTCGTAAG
Experiment [30] has as its system DNA aptamer or structured DNA CTTACGACCGGGATCCTTTGGGACAACCTGGTGGGCATGTCGTAAG
Experiment [31] concerns DNA aptamer or structured DNA GGGACGACGGGAAATGGAAGCATTGGTTGAGTTACTCTGCTCCTGTCGTCCC
Experiment [32] deals with DNA aptamer or structured DNA CTTACGACACTGGCAGGAGGGTCGGGTGTGGGAACGTGGTCGTAAG
For experiment [33], the system named is DNA aptamer or structured DNA CTTACGACGGGGTGGGGGCGGCTTCCCATGGGAGGGGTGTCGTAAG

pKd: −log10 of the molar value.
Throughout, for binding call: call rule not given here.

`Cc1nnc2n1-c1ccc(Cl)cc1C(c1ccccc1)=NC2`: the binding call in experiment [1], in experiment [2], in experiment [3], in experiment [4], in [5] and in experiment [6] was “no binding” throughout. For the same compound, the binding call in [7], in experiment [8], in experiment [9], in experiment [10], in experiment [11] and in experiment [12] was “no binding” each time. For the same compound, the binding call in experiment [13], in experiment [14] and in experiment [15] was “no binding” throughout.
For `NCCc1c[nH]c2ccc(O)cc12`, the binding call in experiment [16], in experiment [17], in experiment [1], in experiment [2], in [3] and in experiment [4] was “no binding” throughout. In addition, the binding call in experiment [6] is given as “no binding”; in experiment [7] it was “binds”; in experiment [18], “no binding”; in experiment [19] it was “no binding”; in experiment [8] it was “no binding”; in [20] it was “binds”. Also, the binding call in experiment [21] is “no binding”; in experiment [22] it was “no binding”; in experiment [23] it was “no binding”; in experiment [9] it was “no binding”; in experiment [10], “no binding”; in [24], “binds”. The binding call in experiment [11] is listed as “no binding”; in experiment [12], “no binding”; in [13], “no binding”; in experiment [14], “no binding”; in experiment [15] it was “binds”; in [25] it was “binds”. Also, the binding call in [26] was “no binding”.
As to `NCCc1ccc(O)c(O)c1`, the binding call in experiment [16] is “no binding”; in experiment [17], “no binding”; in [1] it was “no binding”; in [2], “binds”; in experiment [3], “no binding”; in experiment [5], “no binding”. In addition, the binding call in experiment [6] is “no binding”; in experiment [7] it was “no binding”; in experiment [18] it was “no binding”; in experiment [19] it was “no binding”; in experiment [20], “binds”; in experiment [21] it was “no binding”. The binding call in experiment [22] is reported as “no binding”; in experiment [23] it was “no binding”; in experiment [9], “binds”; in [10], “no binding”; in [24], “binds”; in [11], “no binding”. For the same compound, the binding call is “no binding” in experiment [12]; “binds” in experiment [13]; “no binding” in [14]; “binds” in [15]; “binds” in experiment [25].
Take `CC(C)Cc1ccc(C(C)C(=O)O)cc1` (stereo not drawn): the binding call in experiment [17], in experiment [1], in [6], in experiment [18], in [19] and in experiment [21] was “no binding” in each case. The binding call in [22] is listed as “binds”; in experiment [23], “no binding”; in [9], “no binding”; in [10], “no binding”; in [11], “no binding”; in experiment [12] it was “no binding”. The binding call in experiment [13] and in [14] was “no binding” in each case.
`COC(=O)[C@@H]1C2CCC(C[C@@H]1OC(=O)c1ccccc1)N2C` (stereo partly drawn): the binding call in experiment [16] is given as “no binding”; in [27], “no binding”; in experiment [28], “no binding”; in experiment [29], “no binding”; in [2], “no binding”; in [4], “binds”. Moreover, the binding call in experiment [7] is reported as “binds”; in experiment [30], “no binding”; in experiment [31], “no binding”; in [8], “no binding”; in [20], “binds”; in experiment [32], “no binding”. The binding call in experiment [33] is listed as “no binding”; in experiment [24] it was “no binding”; in experiment [15], “no binding”; in [26], “binds”. The pKd (usually the negative decadic logarithm of the Kd, by convention in mol/L) in experiment [17] was 6.81; in experiment [1], 6.13; in experiment [3], 6.90; in experiment [6], 6.08; in experiment [18] it was 6.21; in experiment [19] it was 6.46. Further, the negative-log Kd (pKd) was 6.55 in experiment [21]; 5.58 in [22]; 6.55 in experiment [23]; 6.46 in experiment [9]; 7.16 in experiment [10]; 5.99 in [11]. Also, the pKd is 6.22 in [13], 6.72 in experiment [14] and 6.70 in experiment [25].
